In publication PMC10298626 (International Journal of Molecular Sciences, 2023):
Marks after values point to notes of the source that are not given here.

How the values were obtained:
[1] = system: LPS-stimulated RAW264.7 cells; experiment: NO production (Griess reagent) in LPS-stimulated RAW264.7 cells; assay type: cell-based, Mouse; conditions: Dexamethasone (100 μM) treated for 2 h and LPS treated for 20 h; LPS alone 25.9, control 3.1
[2] = molecular target: acetylcholinesterase; parameters: method as in PMID 8823504, PMID 7649881, PMID 9535168; conditions: read-out: IC50 against acetylcholinesterase; cited from earlier work
[3] = system: LPS-stimulated RAW264.7 cells; experiment: NO production (Griess reagent) in LPS-stimulated RAW264.7 cells; assay type: cell-based, Mouse; conditions: for NO production, Average / NO production, Average (μM): then LPS (500 ng/mL) 20 h, LPS alone 25.9, control 3.1; for Anti-inflammatory effect (inhibition of NO secretion), in words: 20, 40, and 80 μM, compared with LPS-only treatment
Experimental: A high concentration of NO promotes the synthesis of inflammatory mediators, leading to an inflammatory response, and has been reported to be a cause of various immune diseases. Therefore, this study was conducted to investigate the effect of coumarin derivatives on the production of NO induced by LPS stimulation in RAW264.7 cells. The cells were treated with coumarin derivatives at concentrations of 20, 40, and 80 μM for 2 h. Then, the cells were treated with LPS. After 20 h, the culture supernatant was recovered, and the amount of NO was measured. […] The anti-inflammatory activity of these derivatives depended on the position of the substituted group rather than the electron density of the substituted group.
The Griess reagent was used to measure NO production. RAW264.7 cells were seeded into a 96-well plate and cultured for 24 h. The cells were treated with 20, 40, and 80 μM of coumarin derivatives, cultured for 2 h, and then cultured with LPS (500 ng/mL) for 20 h. The same amount of cell supernatant and Griess reagent were used for the reaction, and absorbance was measured at 540 nm.

[4] = in vitro; assay type: cell-based; conditions: mouse, RAW264.7 cells, then LPS (500 ng/mL) 20 h, read-out: Cell viability, Average (%); for viability at 22 h, 20 μM: 20 μM for 2 h; for viability at 22 h, 40 μM: 40 μM for 2 h; for viability at 22 h, 80 μM: 80 μM for 2 h
Experimental: To investigate the anti-inflammatory activity of coumarin derivatives, cell viability was analyzed by treating RAW264.7 cells with 23 types of coumarin derivatives at concentrations of 20, 40, and 80 μM for 2 h and with LPS for 20 h.
Mouse macrophage RAW264.7 cells were purchased from the Korea Cell Line Bank (Seoul, Republic of Korea) and cultured in Dulbecco’s Modified Eagle Medium (Corning, NY, USA) containing 10% fetal bovine serum and 1% penicillin/streptomycin at 37 °C and 5% CO2. The medium was changed every 2 days and subcultured when the cells grew > 80%.
EZ-Cytox cell viability assay kit (Dogen, Suwon, Republic of Korea) was used to measure cell viability according to the manufacturer’s instructions. RAW264.7 cells were seeded into a 96-well plate (1 × 10^5 cells/well) and treated with coumarin derivatives at concentrations of 20, 40, and 80 μM. After 2 h, the cells were treated with LPS (500 ng/mL) and cultured for 24 h in a 37 °C, 5% CO2 incubator. The culture supernatant was treated with 10% EZ-Cytox reagent, and a microplate reader was used to measure the absorbance at 450 nm.

## C[C@@H]1C[C@H]2[C@@H]3CCC4=CC(=O)C=C[C@]4(C)[C@@]3(F)[C@@H](O)C[C@]2(C)[C@@]1(O)C(=O)CO [Dexamethasone]
[1]
  NO production, Average (μM): 6.5 ^# μM

## COc1ccc(-c2cc3c(c(=O)o2)C[C@]2(O)[C@@]4(C)C(=O)C=CC(C)(C)[C@]4(O)CC[C@@]2(C)O3)cc1OC [Arisugacin A]
[2]
  IC50: 1 nM

## COc1ccc(-c2cc3c(c(=O)o2)C[C@]2(O)[C@@]4(C)C(=O)C=CC(C)(C)[C@]4(O)CC[C@@]2(C)O3)cc1 [Arisugacin B]
[2]
  IC50: 26 nM

## N#CC1=C(N)Oc2c(c(=O)oc3ccccc23)C1c1ccccc1C(F)(F)F (stereo not drawn) [Coumarin derivative 4]
[3]; 20 μM for 2 h
  NO production, Average: 15.71 µM
[3]; 40 μM for 2 h
  NO production, Average (μM): 17.45 *** μM
[3]; 80 μM for 2 h
  NO production, Average (μM): 18.09 *** μM
[4]
  viability at 22 h, 20 μM: 79.9%
  viability at 22 h, 40 μM: 91.2%
  viability at 22 h, 80 μM: 88.7%

## Cc1ccccc1C1C(C#N)=C(N)Oc2c1c(=O)oc1ccccc21 (stereo not drawn) [Coumarin derivative 9]
[3]; 20 μM for 2 h
  NO production, Average: 23.27 µM
[3]; 40 μM for 2 h
  NO production, Average: 24.10 µM
[3]; 80 μM for 2 h
  NO production, Average: 21.32 µM
[3]
  Anti-inflammatory effect (inhibition of NO secretion), in words: almost no anti-inflammatory effect
[4]
  viability at 22 h, 20 μM: 118%
  viability at 22 h, 40 μM: 111%
  viability at 22 h, 80 μM: 112%

## N#CC1=C(N)Oc2c(c(=O)oc3ccccc23)C1c1cccc(OC(F)(F)F)c1 (stereo not drawn) [Coumarin derivative 13]
[3]; 20 μM for 2 h
  NO production, Average: 27.17 µM
[3]; 40 μM for 2 h
  NO production, Average: 26.33 µM
[3]; 80 μM for 2 h
  NO production, Average: 24.94 µM
[3]
  Anti-inflammatory effect (inhibition of NO secretion), in words: almost no anti-inflammatory effects
[4]
  viability at 22 h, 20 μM: 114%
  viability at 22 h, 40 μM: 118%
  viability at 22 h, 80 μM: 112%

## Cc1cccc(C2C(C#N)=C(N)Oc3c2c(=O)oc2ccccc32)c1 (stereo not drawn) [Coumarin derivative 10]
[3]; 20 μM for 2 h
  NO production, Average: 24.24 µM
[3]; 40 μM for 2 h
  NO production, Average (μM): 20.34 ** μM
[3]; 80 μM for 2 h
  NO production, Average (μM): 9.21 *** μM
[3]
  Anti-inflammatory effect (inhibition of NO secretion), in words: inhibited NO secretion in a concentration-dependent manner
[4]
  viability at 22 h, 20 μM: 111%
  viability at 22 h, 40 μM: 113%
  viability at 22 h, 80 μM: 104%

## N#CC1=C(N)Oc2c(c(=O)oc3ccccc23)C1c1ccc(Br)cc1 (stereo not drawn) [Coumarin derivative 20]
[3]; 20 μM for 2 h
  NO production, Average: 31.89 µM
[3]; 40 μM for 2 h
  NO production, Average: 30.12 µM
[3]; 80 μM for 2 h
  NO production, Average (μM): 19.52 ** μM
[4]
  viability at 22 h, 20 μM: 114%
  viability at 22 h, 40 μM: 124%
  viability at 22 h, 80 μM: 135%
